Source: US10329260B2, “Human plasma kallikrein inhibitors” (BioCryst Pharmaceuticals, Inc., priority 2014, dated 2019)

Biological target: human plasma kallikrein (Homo sapiens (Human), UniProt P03952)
Assay: Plasma Kallikrein Activity Assay
Type: biochemical
Details: 2 nM kallikrein, 80 μM chromogenic substrate S2302, 30° C., pH 7.8; Ki by Cheng-Prusoff equation

Sequence of human plasma kallikrein (P03952 whole entry partner, looked up): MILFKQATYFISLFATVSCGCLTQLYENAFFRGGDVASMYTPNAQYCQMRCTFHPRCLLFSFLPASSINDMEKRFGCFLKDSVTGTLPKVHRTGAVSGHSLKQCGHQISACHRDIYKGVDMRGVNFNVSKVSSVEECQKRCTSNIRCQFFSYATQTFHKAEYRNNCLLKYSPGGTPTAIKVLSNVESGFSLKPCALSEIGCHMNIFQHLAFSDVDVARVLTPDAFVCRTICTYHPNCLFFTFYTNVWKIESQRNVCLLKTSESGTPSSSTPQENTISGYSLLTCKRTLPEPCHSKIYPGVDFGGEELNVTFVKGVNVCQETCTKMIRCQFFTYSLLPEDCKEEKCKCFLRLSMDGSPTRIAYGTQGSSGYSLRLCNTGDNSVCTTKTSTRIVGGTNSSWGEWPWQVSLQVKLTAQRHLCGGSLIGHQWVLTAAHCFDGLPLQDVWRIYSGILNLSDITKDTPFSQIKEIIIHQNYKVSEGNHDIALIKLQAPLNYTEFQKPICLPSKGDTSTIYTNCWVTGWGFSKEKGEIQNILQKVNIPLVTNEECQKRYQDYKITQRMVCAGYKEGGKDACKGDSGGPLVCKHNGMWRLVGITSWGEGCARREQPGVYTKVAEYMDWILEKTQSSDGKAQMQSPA
Sequence of human plasma kallikrein (P03952 whole entry, looked up): as the sequence (P03952 whole entry partner, looked up) above

Row | SMILES | Ki [nM]
1 | NCc1cccc(-n2nc(C(F)(F)F)cc2C(=O)Nc2cccc(C(NCc3cccnc3)c3ccccc3)c2)c1 (stereo not drawn) [Compound 179b, 1-(3-(Aminomethyl)phenyl)-N-(3-(phenyl((pyridin-3-ylmethyl)amino)methyl)phenyl)-3-(trifluoromethyl)-1H-pyrazole-5-carboxamide] | > 100
2 | CC(C)(CO)NC(c1ccccc1)c1cccc(NC(=O)c2cc(C(F)(F)F)nn2-c2cccc(CN)c2)c1 (stereo not drawn) [Compound 174b, 1-(3-(aminomethyl)phenyl)-N-(3-(((1-hydroxy-2-methylpropan-2-yl)amino)(phenyl)methyl)phenyl)-3-(trifluoromethyl)-1H-pyrazole-5-carboxamide] | > 100
3 | NCc1cccc(-n2nc(C(F)(F)F)cc2C(=O)Nc2cccc(Nc3ccccc3)c2)c1 [Compound 17d, 1-(3-(aminomethyl)phenyl)-N-(3-(phenylamino)phenyl)-3-(trifluoromethyl)-1H-pyrazole-5-carboxamide] | > 100
4 | CCCCOC(c1ccccc1)c1cccc(NC(=O)c2cc(C(F)(F)F)nn2-c2cccc(CN)c2)c1 (stereo not drawn) [Compound 18j, 1-(3-(aminomethyl)phenyl)-N-(3-(butoxy(phenyl)methyl)phenyl)-3-(trifluoromethyl)-1H-pyrazole-5-carboxamide] | > 100
5 | N#Cc1ccc(C(N)(CCC2CC2)c2ccc(F)c(NC(=O)c3cc(C#N)nn3-c3cccc(CN)c3)c2)cc1 (single isomer, unassigned; (+)) [Compound 234d, (+)-N-(5-(1-amino-1-(4-cyanophenyl)-3-cyclopropylpropyl)-2-fluorophenyl)-1-(3-(aminomethyl)phenyl)-3-cyano-1H-pyrazole-5-carboxamide] | > 100
6 | CN(C)C(c1ccccc1)c1cccc(NC(=O)c2cc(C(F)(F)F)nn2-c2cccc(CN)c2)c1 (stereo not drawn) [Compound 184b, 1-(3-(Aminomethyl)phenyl)-N-(3-((dimethylamino)(phenyl)methyl)phenyl)-3-(trifluoromethyl)-1H-pyrazole-5-carboxamide] | > 100
7 | NCc1cccc(-n2nc(C(F)(F)F)cc2C(=O)Nc2cc(F)cc(C(O)c3ccccc3)c2)c1 (stereo not drawn) [Compound 97f, 1-(3-(aminomethyl)phenyl)-N-(3-fluoro-5-(hydroxy(phenyl)methyl)phenyl)-3-(trifluoromethyl)-1H-pyrazole-5-carboxamide] | > 100
8 | CC(C)CCNC(c1ccccc1)c1cccc(NC(=O)c2cc(C(F)(F)F)nn2-c2cccc(CN)c2)c1 (stereo not drawn) [Compound 176b, 1-(3-(aminomethyl)phenyl)-N-(3-((isopentylamino)(phenyl)methyl)phenyl)-3-(trifluoromethyl)-1H-pyrazole-5-carboxamide] | > 100
9 | NCc1cccc(-n2nc(C(F)(F)F)cc2C(=O)Nc2cccc(Cc3cccc(O)c3)c2)c1 [Compound 137b, 1-(3-(aminomethyl)phenyl)-N-(3-(3-hydroxybenzyl)phenyl)-3-(trifluoromethyl)-1H-pyrazole-5-carboxamide] | > 100
10 | NCc1cccc(-n2nc(C(F)(F)F)cc2C(=O)Nc2ccc(C(OCC3CC3)c3ccccc3)cc2F)c1 (stereo not drawn) [Compound 15g, 1-(3-(aminomethyl)phenyl)-N-(4-((cyclopropylmethoxy)(phenyl)methyl)-2-fluorophenyl)-3-(trifluoromethyl)-1H-pyrazole-5-carboxamide] | > 100
11 | NCc1cccc(-n2nc(C(F)(F)F)cc2C(=O)Nc2c(F)cccc2C(O)c2ccccc2)c1 (stereo not drawn) [Compound 90f, 1-(3-(aminomethyl)phenyl)-N-(2-fluoro-6-(hydroxy(phenyl)methyl)phenyl)-3-(trifluoromethyl)-1H-pyrazole-5-carboxamide] | > 100
12 | NCc1cccc(-n2nc(C(F)(F)F)cc2C(=O)Nc2cc(C(O)c3ccccc3)ccc2Cl)c1 (stereo not drawn) [Compound 33f, 1-(3-(aminomethyl)phenyl)-N-(2-chloro-5-(hydroxy(phenyl)methyl)phenyl)-3-(trifluoromethyl)-1H-pyrazole-5-carboxamide] | > 100
13 | NC(=O)c1cccc(-n2nc(C(F)(F)F)cc2C(=O)Nc2cc(C(NCC3CC3)c3ccccc3)ccc2F)c1 (single isomer, unassigned; (-)) [Compound 230a, (−)-1-(3-carbamoylphenyl)-N-(5-((cyclopropylmethylamino)(phenyl)methyl)-2-fluorophenyl)-3-(trifluoromethyl)-1H-pyrazole-5-carboxamide] | > 100
14 | NCc1cccc(-n2nc(C(F)(F)F)cc2C(=O)Nc2cccc(C(CCC3CC3)N3CCOCC3)c2)c1 (stereo not drawn) [Compound 93b, 1-(3-(aminomethyl)phenyl)-N-(3-(3-cyclopropyl-1-morpholinopropyl)phenyl)-3-(trifluoromethyl)-1H-pyrazole-5-carboxamide] | > 100
15 | NCc1cccc(-n2nc(C(F)(F)F)cc2C(=O)Nc2cc(Cn3ccnc3)ccc2F)c1 [Compound 30g, N-(5-((1H-imidazol-1-yl)methyl)-2-fluorophenyl)-1-(3-(aminomethyl)phenyl)-3-(trifluoromethyl)-1H-pyrazole-5-carboxamide] | > 100
16 | CC(C)(C)CNC(c1ccccc1)c1cccc(NC(=O)c2cc(C(F)(F)F)nn2-c2cccc(CN)c2)c1 (stereo not drawn) [Compound 187b, 1-(3-(Aminomethyl)phenyl)-N-(3-((neopentylamino)(phenyl)methyl)phenyl)-3-(trifluoromethyl)-1H-pyrazole-5-carboxamide] | > 100
17 | NCc1cccc(-n2nc(C(F)(F)F)cc2C(=O)Nc2cccc(C(CC(N)=O)c3ccccc3)c2)c1 (stereo not drawn) [Compound 40b, N-(3-(3-amino-3-oxo-1-phenylpropyl)phenyl)-1-(3-(aminomethyl)phenyl)-3-(trifluoromethyl)-1H-pyrazole-5-carboxamide] | > 100
18 | Nc1n[nH]c2ccc(-n3nc(C(F)(F)F)cc3C(=O)Nc3cc(C(NCC4CC4)c4ccccc4)ccc3F)cc12 (stereo not drawn) [Compound 224b, 1-(3-amino-1H-indazol-5-yl)-N-(5-((cyclopropylmethylamino)(phenyl)methyl)-2-fluorophenyl)-3-(trifluoromethyl)-1H-pyrazole-5-carboxamide] | > 100
19 | N#Cc1cccc(C(N)(CCC2CC2)c2ccc(F)c(NC(=O)c3cc(C(F)(F)F)nn3-c3cccc(CN)c3)c2)c1 (single isomer, unassigned; (+)) [Compound 214g, (+)-N-(5-(1-amino-1-(3-cyanophenyl)-3-cyclopropylpropyl)-2-fluorophenyl)-1-(3-(aminomethyl)phenyl)-3-(trifluoromethyl)-1H-pyrazole-5-carboxamide] | 0.1 to 50
20 | CN(Cc1cccc(NC(=O)c2cc(C(F)(F)F)nn2-c2cccc(CN)c2)c1)c1ccccc1 [Compound 28f, 1-(3-(aminomethyl)phenyl)-N-(3-((methyl(phenyl)amino)methyl)phenyl)-3-(trifluoromethyl)-1H-pyrazole-5-carboxamide] | > 100
21 | NCc1cccc(-n2nc(C(F)(F)F)cc2C(=O)Nc2cccc(Oc3ccccc3)c2F)c1 [Compound 23c, 1-(3-(aminomethyl)phenyl)-N-(2-fluoro-3-phenoxyphenyl)-3-(trifluoromethyl)-1H-pyrazole-5-carboxamide] | > 100
22 | NCc1cccc(-n2nc(C(F)(F)F)cc2C(=O)Nc2ccc3c(c2F)CCNC3)c1 [Compound 162c, 1-(3-(aminomethyl)phenyl)-N-(5-fluoro-1,2,3,4-tetrahydroisoquinolin-6-yl)-3-(trifluoromethyl)-1H-pyrazole-5-carboxamide] | > 100
23 | NCc1cccc(-n2nc(C(F)(F)F)cc2C(=O)Nc2cc(C(O)c3ccccc3)ccc2F)c1 (stereo not drawn) [Compound 34d, 1-(3-(aminomethyl)phenyl)-N-(2-fluoro-5-(hydroxy(phenyl)methyl)phenyl)-3-(trifluoromethyl)-1H-pyrazole-5-carboxamide] | > 100
24 | O=C(Nc1cc(C(O)(CCC2CC2)c2ccccn2)ccc1F)c1cc(C(F)(F)F)nn1-c1ccc(Cl)cn1 (stereo not drawn) [Compound 159a, 1-(5-chloropyridin-2-yl)-N-(5-(3-cyclopropyl-1-hydroxy-1-(pyridin-2-yl)propyl)-2-fluorophenyl)-3-(trifluoromethyl)-1H-pyrazole-5-carboxamide] | > 100
25 | N#Cc1cc(C(=O)Nc2cc(C(N)(CCC3CC3)c3ccc(C(N)=O)cc3)ccc2F)n(-c2cccc(CN)c2)n1 (single isomer, unassigned; (+)) [Compound 239d, (+)-N-(5-(1-amino-1-(4-carbamoylphenyl)-3-cyclopropylpropyl)-2-fluorophenyl)-1-(3-(aminomethyl)phenyl)-3-cyano-1H-pyrazole-5-carboxamide] | > 100
26 | COc1ccc(-n2nc(C(F)(F)F)cc2C(=O)Nc2cc(C(O)(CCC3CC3)c3ccccn3)ccc2F)cc1 (stereo not drawn) [Compound 160a, N-(5-(3-cyclopropyl-1-hydroxy-1-(pyridin-2-yl)propyl)-2-fluorophenyl)-1-(4-methoxyphenyl)-3-(trifluoromethyl)-1H-pyrazole-5-carboxamide] | > 100
27 | NCc1cccc(-n2nc(C(F)(F)F)cc2C(=O)Nc2cccc(C(NCC3CCCO3)c3ccccc3)c2)c1 (stereo not drawn) [Compound 175b, 1-(3-(aminomethyl)phenyl)-N-(3-(phenyl(((tetrahydrofuran-2-yl)methyl)amino)methyl)phenyl)-3-(trifluoromethyl)-1H-pyrazole-5-carboxamide] | > 100
28 | COC(c1ccccc1)c1ccc(F)c(NC(=O)c2cc(C(F)(F)F)nn2-c2cccc(CN)c2)c1 (stereo not drawn) [Compound 25c, 1-(3-(aminomethyl)phenyl)-N-(2-fluoro-5-(methoxy(phenyl)methyl)phenyl)-3-(trifluoromethyl)-1H-pyrazole-5-carboxamide] | > 100
29 | NCc1cccc(-n2nc(C(F)(F)F)cc2C(=O)Nc2cccc(C(c3ccccc3)N3CCCC3CO)c2)c1 (stereo not drawn) [Compound 169b, 1-(3-(Aminomethyl)phenyl)-N-(3-((2-(hydroxymethyl)pyrrolidin-1-yl)(phenyl)methyl)phenyl)-3-(trifluoromethyl)-1H-pyrazole-5-carboxamide] | > 100
30 | NCc1cccc(-n2nc(C(F)(F)F)cc2C(=O)Nc2cccc(C(c3ccccc3)N(CCO)CCO)c2)c1 (stereo not drawn) [Compound 178b, 1-(3-(aminomethyl)phenyl)-N-(3-((bis(2-hydroxyethyl)amino)(phenyl)methyl)phenyl)-3-(trifluoromethyl)-1H-pyrazole-5-carboxamide] | > 100
